Experimental data taken from the NIST ThermoML archive (doi:10.1016/j.jct.2012.01.019).
Numbers after ± are expanded uncertainties.

Experiment: activity coefficient (dimensionless); of the first substance listed, at infinite dilution; xn = mol fraction of the nth substance listed
Conditions: 101 kPa, Liquid, Chromatography, x1 = 0

| Compound | activity coefficient (318.15 K) | activity coefficient (328.15 K) | activity coefficient (338.15 K) | activity coefficient (348.15 K) | activity coefficient (358.15 K) | activity coefficient (368.15 K) |
| --- | --- | --- | --- | --- | --- | --- |
| CCCCCCCCCC [decane] + COCC[N+]1(C)CCCCC1.O=S(=O)([N-]S(=O)(=O)C(F)(F)F)C(F)(F)F | 73.9 ± 3.5 | 66.5 ± 3.1 | 59.5 ± 2.8 | 53.7 ± 2.5 | 48.8 ± 2.3 | 45 ± 2.1 |
| CCOCC [diethyl ether] + COCC[N+]1(C)CCCCC1.O=S(=O)([N-]S(=O)(=O)C(F)(F)F)C(F)(F)F | 2.6 ± 0.18 | 2.59 ± 0.18 | 2.58 ± 0.18 | 2.58 ± 0.18 | 2.57 ± 0.17 | 2.56 ± 0.17 |
| CC(C)OC(C)C [diisopropyl ether] + COCC[N+]1(C)CCCCC1.O=S(=O)([N-]S(=O)(=O)C(F)(F)F)C(F)(F)F | 6.13 ± 0.42 | 6.03 ± 0.41 | 5.94 ± 0.4 | 5.84 ± 0.4 | 5.76 ± 0.39 | 5.69 ± 0.39 |
| CCCOCCC [dipropyl ether] + COCC[N+]1(C)CCCCC1.O=S(=O)([N-]S(=O)(=O)C(F)(F)F)C(F)(F)F | 6.45 ± 0.44 | 6.28 ± 0.43 | 6.13 ± 0.42 | 5.98 ± 0.41 | 5.86 ± 0.4 | 5.75 ± 0.39 |
| CCO [ethanol] + COCC[N+]1(C)CCCCC1.O=S(=O)([N-]S(=O)(=O)C(F)(F)F)C(F)(F)F | 1.73 ± 0.12 | 1.58 ± 0.1 | 1.45 ± 0.1 | 1.33 ± 0.09 | 1.24 ± 0.08 | 1.16 ± 0.07 |
| CCOC(C)=O [ethyl acetate] + COCC[N+]1(C)CCCCC1.O=S(=O)([N-]S(=O)(=O)C(F)(F)F)C(F)(F)F | 0.916 ± 0.058 | 0.932 ± 0.059 | 0.948 ± 0.06 | 0.963 ± 0.061 | 0.975 ± 0.061 | 0.989 ± 0.062 |
| CCc1ccccc1 [ethylbenzene] + COCC[N+]1(C)CCCCC1.O=S(=O)([N-]S(=O)(=O)C(F)(F)F)C(F)(F)F | 1.92 ± 0.13 | 1.93 ± 0.13 | 1.93 ± 0.13 | 1.94 ± 0.13 | 1.94 ± 0.13 | 1.95 ± 0.13 |
| CCCCCCC [heptane] + COCC[N+]1(C)CCCCC1.O=S(=O)([N-]S(=O)(=O)C(F)(F)F)C(F)(F)F | 24.5 ± 1.1 | 22.9 ± 1.1 | 21.2 ± 1 | 19.8 ± 0.9 | 18.4 ± 0.9 | 17.5 ± 0.8 |
| C=CCCCC [hex-1-ene] + COCC[N+]1(C)CCCCC1.O=S(=O)([N-]S(=O)(=O)C(F)(F)F)C(F)(F)F | 8.78 ± 0.6 | 8.38 ± 0.57 | 8.05 ± 0.55 | 7.69 ± 0.52 | 7.45 ± 0.51 | 7.22 ± 0.49 |
| CCCCCC [hexane] + COCC[N+]1(C)CCCCC1.O=S(=O)([N-]S(=O)(=O)C(F)(F)F)C(F)(F)F | 16.9 ± 0.8 | 16 ± 0.7 | 15.1 ± 0.7 | 14.2 ± 0.7 | 13.5 ± 0.6 | 13 ± 0.6 |
| CO [methanol] + COCC[N+]1(C)CCCCC1.O=S(=O)([N-]S(=O)(=O)C(F)(F)F)C(F)(F)F | 1.37 ± 0.09 | 1.26 ± 0.08 | 1.17 ± 0.07 | 1.08 ± 0.07 | 1 ± 0.06 | 0.942 ± 0.059 |
| CCCC(=O)OC [methyl butanoate] + COCC[N+]1(C)CCCCC1.O=S(=O)([N-]S(=O)(=O)C(F)(F)F)C(F)(F)F | 1.22 ± 0.08 | 1.23 ± 0.08 | 1.24 ± 0.08 | 1.25 ± 0.08 | 1.26 ± 0.08 | 1.27 ± 0.08 |
| COC(C)=O [methyl ethanoate] + COCC[N+]1(C)CCCCC1.O=S(=O)([N-]S(=O)(=O)C(F)(F)F)C(F)(F)F | 0.7 ± 0.047 | 0.714 ± 0.048 | 0.726 ± 0.048 | 0.74 ± 0.049 | 0.751 ± 0.049 | 0.763 ± 0.05 |
| CCC(=O)OC [methyl propanoate] + COCC[N+]1(C)CCCCC1.O=S(=O)([N-]S(=O)(=O)C(F)(F)F)C(F)(F)F | 0.888 ± 0.057 | 0.904 ± 0.057 | 0.92 ± 0.058 | 0.936 ± 0.059 | 0.95 ± 0.06 | 0.966 ± 0.061 |
| CC1CCCCC1 [methylcyclohexane] + COCC[N+]1(C)CCCCC1.O=S(=O)([N-]S(=O)(=O)C(F)(F)F)C(F)(F)F | 13.5 ± 0.6 | 12.7 ± 0.6 | 12 ± 0.6 | 11.2 ± 0.5 | 10.6 ± 0.5 | 10.2 ± 0.5 |
| CCCCCCCCC [nonane] + COCC[N+]1(C)CCCCC1.O=S(=O)([N-]S(=O)(=O)C(F)(F)F)C(F)(F)F | 50.8 ± 2.4 | 46.3 ± 2.2 | 42 ± 2 | 38.2 ± 1.8 | 35.1 ± 1.6 | 32.4 ± 1.5 |
| C=CCCCCCC [oct-1-ene] + COCC[N+]1(C)CCCCC1.O=S(=O)([N-]S(=O)(=O)C(F)(F)F)C(F)(F)F | 18.1 ± 1.2 | 17 ± 1.2 | 16.1 ± 1.1 | 15.1 ± 1 | 14.4 ± 1 | 13.8 ± 0.9 |
| CCCCCCCC [octane] + COCC[N+]1(C)CCCCC1.O=S(=O)([N-]S(=O)(=O)C(F)(F)F)C(F)(F)F | 35.4 ± 1.6 | 32.6 ± 1.5 | 30 ± 1.4 | 27.6 ± 1.3 | 25.6 ± 1.2 | 23.8 ± 1.1 |
| CCCC(C)=O [pentan-2-one] + COCC[N+]1(C)CCCCC1.O=S(=O)([N-]S(=O)(=O)C(F)(F)F)C(F)(F)F | 0.786 ± 0.051 | 0.801 ± 0.052 | 0.813 ± 0.053 | 0.825 ± 0.053 | 0.837 ± 0.054 | 0.849 ± 0.054 |
| CCC(=O)CC [pentan-3-one] + COCC[N+]1(C)CCCCC1.O=S(=O)([N-]S(=O)(=O)C(F)(F)F)C(F)(F)F | 0.785 ± 0.051 | 0.801 ± 0.052 | 0.821 ± 0.053 | 0.838 ± 0.054 | 0.852 ± 0.055 | 0.869 ± 0.056 |
| CCCCC [pentane] + COCC[N+]1(C)CCCCC1.O=S(=O)([N-]S(=O)(=O)C(F)(F)F)C(F)(F)F | 11.8 ± 0.5 | 11.3 ± 0.5 | 10.8 ± 0.5 | 10.3 ± 0.5 | 9.86 ± 0.45 | 9.48 ± 0.44 |
| CCCO [propan-1-ol] + COCC[N+]1(C)CCCCC1.O=S(=O)([N-]S(=O)(=O)C(F)(F)F)C(F)(F)F | 2.13 ± 0.14 | 1.93 ± 0.13 | 1.77 ± 0.12 | 1.61 ± 0.11 | 1.5 ± 0.1 | 1.4 ± 0.09 |
| CC(C)O [propan-2-ol] + COCC[N+]1(C)CCCCC1.O=S(=O)([N-]S(=O)(=O)C(F)(F)F)C(F)(F)F | 1.92 ± 0.13 | 1.76 ± 0.12 | 1.61 ± 0.11 | 1.47 ± 0.1 | 1.37 ± 0.09 | 1.28 ± 0.08 |
| c1ccncc1 [pyridine] + COCC[N+]1(C)CCCCC1.O=S(=O)([N-]S(=O)(=O)C(F)(F)F)C(F)(F)F | 0.548 ± 0.04 | 0.555 ± 0.04 | 0.562 ± 0.04 | 0.57 ± 0.041 | 0.577 ± 0.041 | 0.583 ± 0.041 |
| C=Cc1ccccc1 [styrene] + COCC[N+]1(C)CCCCC1.O=S(=O)([N-]S(=O)(=O)C(F)(F)F)C(F)(F)F | 1.08 ± 0.07 | 1.1 ± 0.07 | 1.13 ± 0.07 | 1.14 ± 0.07 | 1.16 ± 0.07 | 1.19 ± 0.08 |
| C1CCOC1 [tetrahydrofuran] + COCC[N+]1(C)CCCCC1.O=S(=O)([N-]S(=O)(=O)C(F)(F)F)C(F)(F)F | 0.76 ± 0.05 | 0.773 ± 0.051 | 0.787 ± 0.051 | 0.799 ± 0.052 | 0.809 ± 0.052 | 0.821 ± 0.053 |
| c1ccsc1 [thiophene] + COCC[N+]1(C)CCCCC1.O=S(=O)([N-]S(=O)(=O)C(F)(F)F)C(F)(F)F | 0.787 ± 0.051 | 0.798 ± 0.052 | 0.808 ± 0.052 | 0.819 ± 0.053 | 0.829 ± 0.053 | 0.839 ± 0.054 |
| Cc1ccccc1 [toluene] + COCC[N+]1(C)CCCCC1.O=S(=O)([N-]S(=O)(=O)C(F)(F)F)C(F)(F)F | 1.29 ± 0.08 | 1.3 ± 0.08 | 1.32 ± 0.09 | 1.33 ± 0.09 | 1.34 ± 0.09 | 1.35 ± 0.09 |
| O [water] + COCC[N+]1(C)CCCCC1.O=S(=O)([N-]S(=O)(=O)C(F)(F)F)C(F)(F)F | 3.35 ± 0.23 | 2.93 ± 0.2 | 2.62 ± 0.18 | 2.33 ± 0.16 | 2.07 ± 0.14 | 1.87 ± 0.13 |
